The values that follow come from patent US12291504B2 (University of Pittsburgh—Of the Commonwealth System of …, priority 2018, dated 2025).

pKi: −log10 of the molar value. Like-named read-outs stand apart in the source and are kept apart here.

Test [1] deals with SULT1A3 spin-labeled at Cys 116 (Homo sapiens, UniProt P0DMM9, Q116C). Description: Initial-rate parameters, spin-labeled SULT1A3 mutant 116.
Description: Covalent Tagging of SULT1A3 Cys Constructs. Labeling of the SULT1A3 Cys constructs was performed as described previously (17,18,21). Briefly, 3-maleimido-PROXYL (spin label) or N-cyclohexylmaleimide (diamagnetic control) was added to an enzyme containing solution at 20-fold excess over reactive Cys. Unreacted Cys was monitored using DNTB (17,18,21); reactions were considered complete when >98% of the Cys was labeled. Reaction conditions: SULT1A3 (50 μM, monomer), 3-maleimido-PROXYL or N-cyclohexylmaleimide (1.0 mM), PAP (0.50 mM), KPO4 (50 mM), pH 7.5, 4±2° C. To prepare samples for NMR, reaction mixtures were dialyzed three times against 40 volumes of PAP (0.50 mM), KPO4 (50 mM), pD 7.4, D2O (>95%), 4±2° C.
Initial-Rate Studies. Initial-rate parameters for the labeled or mutant SULT1A3 constructs were determined using a previously described 1-HP assay (25). […] Reactions were monitored via fluorescence change associated with the conversion of 1-HP to 1-HP-S (λex=325 nm, λem=370 nm). Keq for the 1-HP sulfonation reaction is −250. Given the reaction conditions outlined above, ≥99% of 1-HP is converted to 1-HP-S, and ˜0.4% of PAPS is converted to PAP at equilibrium. […] Reaction progress curves were analyzed to obtain initial-rate parameters as described previously (26,27).
Inhibition studies. Inhibition parameters were determined under conditions identical to those described above (see, Initial-Rate Studies) except that [1-HP] was increased to 5.0 μM (˜61×Km) and inhibitor concentration was varied between 0.20-20×Ki. Ki was obtained using a least-squares fit to the following partial inhibition equation (25,28): v=kcat·(Ki+(1/kcat inh)·[I])/(Ki+[I]), where kcat inh is enzyme turnover at saturating substrates and allosteric inhibitor.
Another test deals with SULT1A3 (Homo sapiens, UniProt P0DMM9). Description: SULT1A3 inhibition studies, 1-HP initial-rate fluorescence assay. Format: biochemical. More on the design: Wild-type and mutant SULT1A3 coding regions were inserted into a pGEX-6P expression vector; N-His/GST/MBP triple-tag (N, cleaved yes); made in house; host or cells: E. coli BL21(DE3); inhibition: dose or concentration left out as unconfirmed. To be noted: for Ki: ND = inhibition was not detected at 30 μM compound, read-out: SULT1A3 Ki/μM; for Ki / inhibition: parentheses one standard error; for inhibition: read-out: SULT1A3 Enzyme Inhibition at Saturation/%. Summed up: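 SULT1A3 (20 nM active sites) with PAPS 0.50 mM (17×Km) and 1-HP 5.0 μM (~61×Km) in 50 mM KPO4, pH 7.5, 25±2° C; inhibitor varied 0.20-20×Ki. Initial rates from 1-HP fluorescence (λex 325, λem 370 nm), triplicate; Ki by least-squares fit to a partial-inhibition equation.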
Sequence of SULT1A3 (P0DMM9 whole entry): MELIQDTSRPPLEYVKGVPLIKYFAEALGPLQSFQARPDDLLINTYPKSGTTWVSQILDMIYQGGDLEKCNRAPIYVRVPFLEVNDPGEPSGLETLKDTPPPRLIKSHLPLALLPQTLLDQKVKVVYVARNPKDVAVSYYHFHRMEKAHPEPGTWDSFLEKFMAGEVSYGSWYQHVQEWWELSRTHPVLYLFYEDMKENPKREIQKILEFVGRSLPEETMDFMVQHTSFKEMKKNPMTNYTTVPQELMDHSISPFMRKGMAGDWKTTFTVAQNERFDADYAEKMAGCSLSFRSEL

In another test the target is T1, SULT2A1 (Homo sapiens, UniProt Q06520).
T1 sequence (Q06520 1-285): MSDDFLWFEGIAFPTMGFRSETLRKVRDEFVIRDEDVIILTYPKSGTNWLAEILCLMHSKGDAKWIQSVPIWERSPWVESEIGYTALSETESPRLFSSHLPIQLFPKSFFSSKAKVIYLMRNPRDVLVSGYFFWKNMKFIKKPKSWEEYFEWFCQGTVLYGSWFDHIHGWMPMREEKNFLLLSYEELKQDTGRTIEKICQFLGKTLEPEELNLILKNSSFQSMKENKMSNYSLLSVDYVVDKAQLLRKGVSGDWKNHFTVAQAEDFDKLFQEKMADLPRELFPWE
Description: SULT2A1 inhibition test. To be noted: at 50 uM. The format is biochemical.

The next test addresses Dog (1D1) (Canis lupus familiaris, UniProt A0A8I3RXJ1). The test is described as follows: Inhibition of SULT1A3 homologues in different species: Dog. Format: biochemical. As to the method: Compounds 12, 23 and 25 were also tested for Inhibition of SULT1A3 in different species. Inhibition of SULT1A3 Homologues in Different Species. SULT1A3 is only expressed in humans and higher primates. SULT1D1 is the isoform expressed in dogs and rodents that sulfonates neurotransmitters and is most similar to SULT1A3. Three synthesized allosteres (12, 23, and 25) were tested against both 1A3 and 1D1 from different species in order to explore testing in animal models. […] Mice have been engineered such that their SULT1A1/2 enzymes have been knocked out and replaced with the human versions of those isoforms.

A further test deals with T2, SULT1E1 (Homo sapiens, UniProt P49888).
T2 sequence (P49888 1-294): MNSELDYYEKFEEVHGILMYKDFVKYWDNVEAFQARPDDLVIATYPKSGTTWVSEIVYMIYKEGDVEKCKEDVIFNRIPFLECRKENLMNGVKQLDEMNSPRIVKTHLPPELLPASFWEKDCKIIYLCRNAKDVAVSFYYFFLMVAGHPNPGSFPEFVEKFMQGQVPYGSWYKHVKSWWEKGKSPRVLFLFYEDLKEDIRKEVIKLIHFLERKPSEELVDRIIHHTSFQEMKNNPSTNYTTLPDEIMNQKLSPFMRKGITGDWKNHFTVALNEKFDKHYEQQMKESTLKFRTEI
The test is described as follows: SULT1E1 inhibition test. Format: biochemical. To be noted: at 50 uM.

Sequence of Dog (1D1) (A0A8I3RXJ1 entry or part of it): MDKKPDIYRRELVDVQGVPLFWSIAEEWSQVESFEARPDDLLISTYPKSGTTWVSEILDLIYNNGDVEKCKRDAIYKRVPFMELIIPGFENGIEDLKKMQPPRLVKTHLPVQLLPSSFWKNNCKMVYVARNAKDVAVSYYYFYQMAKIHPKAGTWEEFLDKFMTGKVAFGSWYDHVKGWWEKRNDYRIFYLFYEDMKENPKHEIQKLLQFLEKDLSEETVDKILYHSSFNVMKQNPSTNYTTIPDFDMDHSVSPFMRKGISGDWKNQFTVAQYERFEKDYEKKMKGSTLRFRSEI
Sequence of SULT1A3 spin-labeled at Cys 116 (P0DMM9 whole entry Q116C): as the sequence (P0DMM9 whole entry) above, with Q116C counted along it

Turning to `CC(C)Cc1ccc2cc(CO)ccc2n1` [Compound 8, (2-Isobutylquinolin-6-yl)methanol], the pKi was 7.43 in test [1]; 7.47 on SULT1A3 (FIG. 1, read-out: Ki of CMP8 for SULT1A3); 7.47 on SULT1A3 (WT enzyme, parentheses one standard deviation, read-out: Ki CMP8). Further, at SULT1A3, the Ki was 0.034 µM. On SULT1A3 (competition against near-total inhibitors of the catechin and NSAID sites), the “alleviation of inhibition by epigallochatechin gallate or mefenamic acid” value is “did not alleviate inhibition”. The inhibition at SULT1A3 amounted to 54%. Also, at SULT1A3 (partial inhibitor, at saturation), the “SULT1A3 turnover at saturation relative to absence of inhibitor” value is 46%. The “kcat (+CMP8)/kcat (−CMP8)” value at SULT1A3 (saturating CMP8) is given as 0.46±0.08.

Regarding `CC(C)Cc1ccc2cc(CCC(N)=O)ccc2n1` [Compound 12], the “inhibition of SULT2A1” value at SULT2A1 was “no inhibition was detected”. The “Dog (1D1) % inh” value at Dog (1D1) was 83 (6) %. Moreover, at Dog (1D1) (standard error in neighbouring cell), the pKi is 7.11. On SULT1E1, the “inhibition of SULT1E1” value was “no inhibition was detected”. For the same molecule, on SULT1A3, the “affinity for SULT1A3 (in words)” value is given as “low micromolar affinity”, the Ki amounted to 0.069 µM and the inhibition came out at 83%. Further, the pKi at SULT1A3 (standard error in neighbouring cell, read-out: Human (1A3) Ki) is 7.30. The molecule also yielded an inhibition at saturation at SULT1A3 (text b218) of 83%.
